Source: ChEMBL document CHEMBL3046322, “Insect growth regulatory effects by diterpenes from Calceolaria talcana Grau & Ehrhart (Calceolariaceae: Scrophulariaceae) against Spodoptera frugiperda and Drosophila melanogaster” (2013)
Active and inactive are the calls of the source. No cut-off for these calls is given here.

What was measured:
Drosophila melanogaster [1] = test: Insecticidal activity against Drosophila melanogaster larvae fed with compound incorporated diet assessed as mortality at 5 to 100 ug/ml after 72 hr by not choice test (reference value: 0%); assay type: functional, organism-based
Spodoptera frugiperda [2] = test: Growth inhibitory activity against Spodoptera frugiperda (fall armyworm) larvae fed with compound containing diet assessed as relative growth index at 35 ug/ml (reference value: 1.0 no_unit); assay type: functional
Spodoptera frugiperda [3] = test: Growth inhibitory activity against po dosed fourth-instar larvae of Spodoptera frugiperda (fall armyworm) assessed as proportion of prothetely appearance of precocious pupal structure in larvae after 48 to 72 hr; assay type: functional; parameters: scale not given: the % may be the effect or the level left
Spodoptera frugiperda [4] = test: Growth inhibitory activity against Spodoptera frugiperda (fall armyworm) larvae fed with compound containing diet assessed as growth index at 25 ug/ml (reference value: 0.95 +/-0.02 no_unit); assay type: functional
Spodoptera frugiperda [5] = test: Growth inhibitory activity against po dosed Spodoptera frugiperda (fall armyworm) larvae assessed as promotion of apolysis to fifth instar with ecdysis inhibition at 5 to 20 ug/ml; assay type: functional, organism-based
Spodoptera frugiperda [6] = test: Growth inhibitory activity against Spodoptera frugiperda (fall armyworm) larvae fed with compound containing diet assessed as relative growth index at 10 ug/ml (reference value: 1.0 no_unit); assay type: functional
Spodoptera frugiperda [7] = test: Growth inhibitory activity against Spodoptera frugiperda (fall armyworm) larvae fed with compound containing diet assessed as growth index at 50 ug/ml (reference value: 0.95 +/-0.02 no_unit); assay type: functional
Spodoptera frugiperda [8] = test: Growth inhibitory activity against Spodoptera frugiperda (fall armyworm) larvae fed with compound containing diet assessed as growth index at 10 ug/ml (reference value: 0.95 +/-0.02 no_unit); assay type: functional
Spodoptera frugiperda [9] = test: Growth inhibitory activity against Spodoptera frugiperda (fall armyworm) larvae fed with compound containing diet assessed as relative growth index at 50 ug/ml (reference value: 1.0 no_unit); assay type: functional
Spodoptera frugiperda [10] = test: Growth inhibitory activity against Spodoptera frugiperda (fall armyworm) larvae fed with compound containing diet assessed as growth index at 35 ug/ml (reference value: 0.95 +/-0.02 no_unit); assay type: functional
Spodoptera frugiperda [11] = test: Growth inhibitory activity against Spodoptera frugiperda (fall armyworm) larvae fed with compound containing diet assessed as relative growth index at 25 ug/ml (reference value: 1.0 no_unit); assay type: functional
Drosophila melanogaster [12] = test: Insecticidal activity against Drosophila melanogaster larvae fed with compound incorporated diet assessed as mortality at 20 ug/ml after 72 hr by not choice test (reference value: 0%); assay type: functional
Drosophila melanogaster [13] = test: Insecticidal activity against Drosophila melanogaster larvae fed with compound incorporated diet assessed as mortality at 100 ug/ml after 72 hr by not choice test (reference value: 0%); assay type: functional
Drosophila melanogaster [14] = test: Insecticidal activity against Drosophila melanogaster larvae fed with compound incorporated diet assessed as mortality at 50 ug/ml after 72 hr by not choice test (reference value: 0%); assay type: functional
Spodoptera frugiperda [15] = test: Insecticidal activity against first-instar larval stage of Spodoptera frugiperda (fall armyworm) fed with compound incorporated diet assessed as mortality at 50 ug/ml after 7 days (reference value: 5.6%); assay type: functional; conditions: 168 h
Spodoptera frugiperda [16] = test: Growth inhibitory activity against first-instar larval stage of Spodoptera frugiperda (fall armyworm) fed with compound incorporated diet assessed as weight gained at 10 ug/ml after 21 days (reference value: 100%); assay type: functional
Spodoptera frugiperda [17] = test: Growth inhibitory activity against first-instar larval stage of Spodoptera frugiperda (fall armyworm) fed with compound incorporated diet assessed as weight gained at 50 ug/ml after 21 days (reference value: 100%); assay type: functional
Spodoptera frugiperda [18] = test: Growth inhibitory activity against first-instar larval stage of Spodoptera frugiperda (fall armyworm) fed with compound incorporated diet assessed as length gained at 50 ug/ml after 7 days (reference value: 100%); assay type: functional
Spodoptera frugiperda [19] = test: Growth inhibitory activity against first-instar larval stage of Spodoptera frugiperda (fall armyworm) fed with compound incorporated diet assessed as weight gained at 25 ug/ml after 21 days (reference value: 100%); assay type: functional; parameters: scale not given: the % may be the effect or the level left
Spodoptera frugiperda [20] = test: Insecticidal activity against first-instar larval stage of Spodoptera frugiperda (fall armyworm) fed with compound incorporated diet assessed as mortality at 50 ug/ml after 21 days (reference value: 5.6%); assay type: functional; conditions: 504 h
Spodoptera frugiperda [21] = test: Growth inhibitory activity against first-instar larval stage of Spodoptera frugiperda (fall armyworm) fed with compound incorporated diet assessed as weight gained at 50 ug/ml after 7 days (reference value: 100%); assay type: functional; parameters: scale not given: the % may be the effect or the level left
Spodoptera frugiperda [22] = test: Insecticidal activity against first-instar larval stage of Spodoptera frugiperda (fall armyworm) fed with compound incorporated diet assessed as mortality at 10 ug/ml after 7 days (reference value: 5.6%); assay type: functional; conditions: 168 h
Spodoptera frugiperda [23] = test: Growth inhibitory activity against first-instar larval stage of Spodoptera frugiperda (fall armyworm) fed with compound incorporated diet assessed as length gained at 25 ug/ml after 21 days (reference value: 100%); assay type: functional; parameters: scale not given: the % may be the effect or the level left
Spodoptera frugiperda [24] = test: Growth inhibitory activity against first-instar larval stage of Spodoptera frugiperda (fall armyworm) fed with compound incorporated diet assessed as length gained at 10 ug/ml after 21 days (reference value: 100%); assay type: functional
Spodoptera frugiperda [25] = test: Growth inhibitory activity against first-instar larval stage of Spodoptera frugiperda (fall armyworm) fed with compound incorporated diet assessed as weight gained at 25 ug/ml after 7 days (reference value: 100%); assay type: functional; parameters: scale not given: the % may be the effect or the level left
Spodoptera frugiperda [26] = test: Growth inhibitory activity against Spodoptera frugiperda (fall armyworm) larvae fed with compound containing diet assessed as reduction in adult emergence at 35 ug/ml; assay type: functional
Spodoptera frugiperda [27] = test: Growth inhibitory activity against Spodoptera frugiperda (fall armyworm) larvae fed with compound containing diet assessed as delay in adult emergence; assay type: functional, organism-based
Spodoptera frugiperda [28] = test: Acute toxicity against last larval stage of Spodoptera frugiperda (fall armyworm) assessed as survival at 25 ug/ml applied topically onto abdomen measured after 24 hr (reference value: 98.8 +/-3.5%); assay type: functional
Spodoptera frugiperda [29] = test: Growth inhibitory activity against Spodoptera frugiperda (fall armyworm) larvae fed with compound containing diet assessed as delay in time to pupation; assay type: functional, organism-based
Spodoptera frugiperda [30] = test: Insecticidal activity against first-instar larval stage of Spodoptera frugiperda (fall armyworm) fed with compound incorporated diet assessed as mortality at 10 ug/ml after 21 days (reference value: 5.6%); assay type: functional; conditions: 504 h
Spodoptera frugiperda [31] = test: Insecticidal activity against first-instar larval stage of Spodoptera frugiperda (fall armyworm) fed with compound incorporated diet assessed as mortality at 25 ug/ml after 7 days (reference value: 5.6%); assay type: functional; conditions: 168 h
Spodoptera frugiperda [32] = test: Growth inhibitory activity against first-instar larval stage of Spodoptera frugiperda (fall armyworm) fed with compound incorporated diet assessed as weight gained at 10 ug/ml after 7 days (reference value: 100%); assay type: functional; parameters: scale not given: the % may be the effect or the level left
Spodoptera frugiperda [33] = test: Growth inhibitory activity against first-instar larval stage of Spodoptera frugiperda (fall armyworm) fed with compound incorporated diet assessed as length gained at 50 ug/ml after 21 days (reference value: 100%); assay type: functional
Spodoptera frugiperda [34] = test: Growth inhibitory activity against first-instar larval stage of Spodoptera frugiperda (fall armyworm) fed with compound incorporated diet assessed as length gained at 10 ug/ml after 7 days (reference value: 100%); assay type: functional
Spodoptera frugiperda [35] = test: Growth inhibitory activity against first-instar larval stage of Spodoptera frugiperda (fall armyworm) fed with compound incorporated diet assessed as length gained at 25 ug/ml after 7 days (reference value: 100%); assay type: functional; parameters: scale not given: the % may be the effect or the level left
Spodoptera frugiperda [36] = test: Insecticidal activity against first-instar larval stage of Spodoptera frugiperda (fall armyworm) fed with compound incorporated diet assessed as mortality at 25 ug/ml after 21 days (reference value: 5.6%); assay type: functional; conditions: 504 h
Spodoptera frugiperda [37] = test: Growth inhibitory activity against Spodoptera frugiperda (fall armyworm) larvae fed with compound containing diet assessed as reduction in adult emergence at 20 ug/ml; assay type: functional
Spodoptera frugiperda [38] = test: Acute toxicity against last larval stage of Spodoptera frugiperda (fall armyworm) assessed as survival at 10 ug/ml applied topically onto abdomen measured after 24 hr (reference value: 98.8 +/-3.5%); assay type: functional

For C=C(C)[C@@H]1CC[C@]2(C)CC[C@]3(C)[C@H](CC[C@@H]4[C@@]5(C)CC[C@H](O)C(C)(C)[C@@H]5CC[C@]43C)[C@@H]12, the mortality (Drosophila melanogaster [1]) was “inactive”.
In the case of CC1OC2=C(C(=O)c3ccccc3C2=O)C1(C)C (stereo unspecified), the mortality (Drosophila melanogaster [1]) is reported as “inactive”.
With CC[C@H](CC[C@@H](C)[C@H]1CC[C@H]2[C@@H]3CC=C4C[C@@H](O)CC[C@]4(C)[C@H]3CC[C@]12C)C(C)C the mortality (Drosophila melanogaster [1]) was “inactive”.
In the case of C[C@@H]1O[C@@H](O[C@@H]2[C@@H](O)[C@H](OCCc3ccc(O)c(O)c3)O[C@H](CO)[C@H]2OC(=O)/C=C/c2ccc(O)c(O)c2)[C@H](O)[C@H](O)[C@H]1O [ACETOSIDE], the Growth_index (Spodoptera frugiperda [2]) is reported as 0.15, the Activity (Spodoptera frugiperda [3]) is reported as 30% and the Growth_index (Spodoptera frugiperda [4]) is reported as 0.41. The Activity (Spodoptera frugiperda [5]) was “Active”, the Growth_index (Spodoptera frugiperda [6]) was 0.67 and the Growth_index (Spodoptera frugiperda [7]) was 0.07. It also gave a Growth_index (Spodoptera frugiperda [8]) of 0.66, a Growth_index (Spodoptera frugiperda [9]) of 0.1 and a Growth_index (Spodoptera frugiperda [10]) of 0.09. For the same compound, the Growth_index (Spodoptera frugiperda [11]) was 0.45, the mortality at 20 µg/mL (Drosophila melanogaster [12]) was 92% and the mortality at 100 µg/mL (Drosophila melanogaster [13]) was 100%. It also gave a mortality at 50 µg/mL (Drosophila melanogaster [14]) of 100%.
CC(=O)O[C@@H]1C[C@H]2C(C)(C)C(=O)C=C[C@]2(C)[C@H]2CC[C@@]3(C)[C@H](c4ccoc4)OC(=O)[C@H]4O[C@]43[C@@]21C [GEDUNIN] was tested, and the mortality at 50 µg/mL (Spodoptera frugiperda [15]) was 70.8%, the “Weight gain (% of control)” value (Spodoptera frugiperda [16]) was 0% and the “Weight gain relative to control” value (Spodoptera frugiperda [17]) was 2.05%. For the same compound, the “Length gain relative to control” value (Spodoptera frugiperda [18]) was 16.7%, the Activity (Spodoptera frugiperda [19]) was 0% and the Activity (Spodoptera frugiperda [3]) was 30%. For the same compound, the Growth_index (Spodoptera frugiperda [4]) was 0.51, the Activity (Spodoptera frugiperda [5]) was “Active” and the mortality at 50 µg/mL (Spodoptera frugiperda [20]) was 98.7%. For the same compound, the Activity (Spodoptera frugiperda [21]) was 1.9%, the mortality at 10 µg/mL (Spodoptera frugiperda [22]) was 33% and the Growth_index (Spodoptera frugiperda [6]) was 0.71. The Activity (Spodoptera frugiperda [23]) was 0%, the Growth_index (Spodoptera frugiperda [7]) was 0.1 and the “Length gained relative to control” value (Spodoptera frugiperda [24]) was 0%. The Activity (Spodoptera frugiperda [25]) was 3.3%, the inhibition at 35 µg/mL (Spodoptera frugiperda [26]) was 0% and the inhibition (Spodoptera frugiperda [27]) was “Active”. The Growth_index (Spodoptera frugiperda [8]) was 0.77, the Growth_index (Spodoptera frugiperda [9]) was 0.11 and the Activity (Spodoptera frugiperda [28]) was 14.1%. The inhibition (Spodoptera frugiperda [29]) was “Active”, the mortality at 10 µg/mL (Spodoptera frugiperda [30]) was 100% and the mortality at 25 µg/mL (Spodoptera frugiperda [31]) was 38%. The Growth_index (Spodoptera frugiperda [11]) was 0.55, the Activity (Spodoptera frugiperda [32]) was 7.1% and the “Length gained (% of control)” value (Spodoptera frugiperda [33]) was 11.6%. The mortality at 20 µg/mL (Drosophila melanogaster [12]) was 87.1%, the mortality at 100 µg/mL (Drosophila melanogaster [13]) was 11% and the “Larval length gained (% of control)” value (Spodoptera frugiperda [34]) was 32.5%. The mortality at 50 µg/mL (Drosophila melanogaster [14]) was 100%, the Activity (Spodoptera frugiperda [35]) was 20% and the mortality at 25 µg/mL (Spodoptera frugiperda [36]) was 100%. It also gave an inhibition at 20 µg/mL (Spodoptera frugiperda [37]) of 0% and an Activity (Spodoptera frugiperda [38]) of 54.7%.
